Our source for the Ratio, Activity and IC50 values is ChEMBL document CHEMBL3593204, “Discovery of substituted 1,4-dihydroquinolines as novel class of ABCB1 modulators” (Bioorg Med Chem, 2015).

Data set [1] concerns the target T1, ATP-dependent translocase ABCB1 (Homo sapiens, UniProt P08183). The data set is described as follows: Inhibition of human ABCB1 expressed in mouse L5178Y cells using rhodamine 123 as substrate assessed as ratio of fluorescent intensity in ABCB1 expressing L5178Y cells to wild type L5178Y cells at 1 uM after 20 mins by flow cytometry. It is filed as cell-based.

The target of data set [2] is T1, ATP-dependent translocase ABCB1. The data set is described as follows: Inhibition of human ABCB1 expressed in mouse L5178Y cells using rhodamine 123 as substrate assessed as ratio of fluorescent intensity in ABCB1 expressing L5178Y cells to wild type L5178Y cells at 10 uM after 20 mins by flow cytometry. It is filed as cell-based.
For data set [3], the system named is L5178Y. The data set is described as follows: Cytotoxicity against mouse L5178Y cells expressing human ABCB1 after 48 hrs by MTT assay. It is filed as ADME, cell-based.
For data set [4], the target named is T1, ATP-dependent translocase ABCB1. The data set is described as follows: Ratio of verapamil to compound for inhibition of human ABCB1 expressed in mouse L5178Y cells using rhodamine 123 as substrate assessed as ratio of fluorescent intensity in ABCB1 expressing L5178Y cells to wild type L5178Y cells at 1 to 10 uM after 20 mins by flow cytometry. It is filed as cell-based.

Data set [5] has as its system L5178Y. The data set is described as follows: Cytotoxicity against mouse L5178Y cells expressing human ABCB1 by MTT assay. It is filed as ADME, cell-based.
Data set [6] relates to L5178Y. The data set is described as follows: Cytotoxicity against wild type mouse L5178Y cells by MTT assay. It is filed as cell-based.
Data set [7] deals with L5178Y. The data set is described as follows: Cytotoxicity against wild type mouse L5178Y cells after 48 hrs by MTT assay. It is filed as cell-based.
Data set [8] relates to EPG85-257P. The data set is described as follows: Induction of ABCB1 expression in human EPG85-257P cells at 10 uM after 72 hrs by Western blot analysis. It is filed as functional, cell-based.
Data set [9] relates to EPG85-257P. The data set is described as follows: Induction of ABCB1 expression in human EPG85-257P cells at 10 uM after 72 hrs by Western blot analysis in presence of daunorubicin. It is filed as functional, cell-based.
The species entered for data set [10] is Homo sapiens. The data set is described as follows: Induction of ABCB1 expression in human EPG85-257RDB cells at 10 uM after 72 hrs by Western blot analysis. It is filed as functional, cell-based.
The test system of the next data set is A2780cisR. The data set is described as follows: Induction of ABCB1/2 expression in human A2780cisR cells at 10 uM after 72 hrs by Western blot analysis. It is filed as functional, cell-based.
The species entered for data set [11] is Homo sapiens. The data set is described as follows: Induction of ABCB1 expression in human EPG85-257RDB cells at 10 uM after 72 hrs by Western blot analysis in presence of daunorubicin. It is filed as functional, cell-based.

Active and inactive are the calls of the source. No cut-off for these calls is given here.

T1 sequence (P08183 whole entry): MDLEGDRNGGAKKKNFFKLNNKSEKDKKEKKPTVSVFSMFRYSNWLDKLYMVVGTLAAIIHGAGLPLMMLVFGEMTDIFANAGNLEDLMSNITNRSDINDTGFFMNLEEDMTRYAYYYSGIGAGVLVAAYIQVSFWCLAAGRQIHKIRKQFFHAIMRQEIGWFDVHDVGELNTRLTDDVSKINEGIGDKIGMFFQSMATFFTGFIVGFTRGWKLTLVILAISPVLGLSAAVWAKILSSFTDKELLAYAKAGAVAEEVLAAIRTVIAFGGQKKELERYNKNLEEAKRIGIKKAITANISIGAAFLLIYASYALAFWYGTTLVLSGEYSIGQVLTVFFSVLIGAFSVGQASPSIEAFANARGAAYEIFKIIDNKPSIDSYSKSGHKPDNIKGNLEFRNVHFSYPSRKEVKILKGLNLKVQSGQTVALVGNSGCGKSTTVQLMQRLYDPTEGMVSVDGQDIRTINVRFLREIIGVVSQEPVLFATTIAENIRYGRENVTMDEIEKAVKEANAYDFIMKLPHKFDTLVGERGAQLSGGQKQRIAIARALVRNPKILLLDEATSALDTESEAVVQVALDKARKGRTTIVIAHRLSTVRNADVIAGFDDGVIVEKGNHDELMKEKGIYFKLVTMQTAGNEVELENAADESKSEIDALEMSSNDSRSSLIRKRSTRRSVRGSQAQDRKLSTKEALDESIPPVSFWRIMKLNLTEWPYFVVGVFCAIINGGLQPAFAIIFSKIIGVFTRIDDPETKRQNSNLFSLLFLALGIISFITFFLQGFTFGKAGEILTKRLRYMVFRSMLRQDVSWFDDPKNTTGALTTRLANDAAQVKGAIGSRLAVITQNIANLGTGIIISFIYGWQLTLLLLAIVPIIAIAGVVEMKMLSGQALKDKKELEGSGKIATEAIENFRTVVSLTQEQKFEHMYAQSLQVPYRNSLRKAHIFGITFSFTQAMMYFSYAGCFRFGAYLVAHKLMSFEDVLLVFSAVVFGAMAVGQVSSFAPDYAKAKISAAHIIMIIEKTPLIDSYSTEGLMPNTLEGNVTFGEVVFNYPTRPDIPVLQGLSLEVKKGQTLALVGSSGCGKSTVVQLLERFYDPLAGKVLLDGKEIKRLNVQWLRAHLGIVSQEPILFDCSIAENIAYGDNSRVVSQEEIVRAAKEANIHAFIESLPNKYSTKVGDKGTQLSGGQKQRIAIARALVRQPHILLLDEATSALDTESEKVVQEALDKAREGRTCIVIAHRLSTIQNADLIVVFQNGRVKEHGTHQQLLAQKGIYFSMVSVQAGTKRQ

As for `CCOC(=O)C1=CN(Cc2cccc(OC)c2)c2ccccc2C1c1cccc(OC)c1` (stereo not drawn), the Ratio in data set [1] was determined as 2.26; in data set [2] it was 9.68.

Regarding `CCOC(=O)C1=CN(Cc2cccc(OC)c2)c2ccccc2C1c1ccc(OC)cc1` (stereo not drawn), the values for the Ratio in [1] and in data set [2] were 2.23 and 9.95, respectively.

On to `CCOC(=O)C1=CN(Cc2ccccc2)c2ccccc2C1c1ccc(OC)c(OC)c1` (stereo not drawn), for which the Activity result in the data set with L5178Y [3] and in the data set on L5178Y [7] was “Non-toxic” each time. Moreover, the figures for the Ratio in data set [4], in data set [1] and in data set [2] were 2.5, 3.42 and 12.77, respectively. Moreover, the IC50 with L5178Y [5] and in the data set on L5178Y [6] was above 160 µM throughout.

As to `CCOC(=O)C1=CN(Cc2ccc(OC)cc2)c2ccccc2C1c1cccc(OC)c1` (stereo not drawn), the Ratio in data set [1] was 2.03; in data set [2] it was 10.34.

As to `CCOC(=O)C1=CN(Cc2ccccc2)c2ccccc2C1c1cc(OC)cc(OC)c1` (stereo not drawn), the Ratio in [1] came out at 2.96; in [2], 10.5.

With `CCOC(=O)C1=CN(Cc2cccc(OC)c2)c2ccccc2C1c1ccc(OC)c(OC)c1` (stereo not drawn), the outcome with EPG85-257P [8], in the data set on EPG85-257P [9], in the data set filed under Homo sapiens [10], with A2780cisR and in the data set filed under Homo sapiens [11] was inactive. The Activity result in the data set on L5178Y [3] and with L5178Y [7] was “Non-toxic” throughout. Also, the IC50 in the data set with L5178Y [5] and in the data set on L5178Y [6] was above 160 µM in each case. Besides, the values for the Ratio in data set [1] and in data set [2] were 2.98 and 15.86, respectively.

On to `CCOC(=O)C1=CN(Cc2ccc(OC)cc2)c2ccccc2C1c1cc(OC)cc(OC)c1` (stereo not drawn), for which the Ratio in [1] is listed as 3.63; in data set [2], 13.36.

For `CCOC(=O)C1=CN(Cc2ccccc2)c2ccccc2C1c1ccccc1` (stereo not drawn), the values for the Ratio in data set [1] and in data set [2] were 1.48 and 4.72, respectively.

Take `COc1ccc(CCN(C)CCCC(C#N)(c2ccc(OC)c(OC)c2)C(C)C)cc1OC` (stereo not drawn) [VERAPAMIL]: the Ratio came out at 1.46 in [1] and 4.98 in data set [2].

With `CCOC(=O)C1=CN(Cc2cccc(OC)c2)c2ccccc2C1c1cc(OC)cc(OC)c1` (stereo not drawn), the Ratio in [1] is 2.71; in data set [2], 13.11.

Turning to `CCOC(=O)C1=CN(Cc2ccc(OC)cc2)c2ccccc2C1c1ccc(OC)cc1` (stereo not drawn), the Ratio in data set [1] turned out to be 2.55; in data set [2], 13.66.

For `CCOC(=O)C1=CN(Cc2ccc(OC)cc2)c2ccccc2C1c1ccc(OC)c(OC)c1` (stereo not drawn), the values for the Ratio in data set [1] and in data set [2] were 2.41 and 15.84, respectively.
